In patent publication US20200367543A1, “SWEETENER AND FLAVOR COMPOSITIONS, METHODS OF MAKING AND METHODS OF USE THEREOF” (EPC Natural Products Co., Ltd., priority 2018, published 2020):
Where two headings read alike, the source gives them in different places.

Legend:
[1] = Sensory evaluation of GSGs and SGs, thaumatin, NHDC and combinations (Ex. 255); details: combinations of EPCalin and NHDC dissolved in water
Method: 4.5 ppm Thaumatin (equivalent to 10 ppm EPCalin) was dissolved in water. Increasing amounts of NHDC (1-5 ppm) were added to the solution and the sensory properties were evaluated.
50 ppm (GSGs and SGs) were dissolved in water. Increasing amounts of NHDC (1-5 ppm) were added to the solution and the sensory properties were evaluated.
50 ppm (GSGs and SGs) and 4.5 ppm Thaumatin (equivalent to 10 ppm EPCalin) were dissolved in water. Increasing amounts of NHDC (1-5 ppm) were added to the solution and the sensory properties were evaluated.

[2] = compared to sucrose; cited from earlier work
[3] = cited from earlier work; for times sweeter than sucrose: sweetness depends on the tested concentration compared with sucrose; for natural sweetness, times of that of sugar: constituents of monk fruit juice or extract; for Sweetness by weight: compared to sucrose
[4] = Kinetics of reaction in dependence of pH-conditions (degradation of Phe and Reb-A, Gluc, Xyl, Suc) by HPLC/MS
Method: Quantitative evaluation was performed using external standardization.
Kinetics of Reaction in Dependence of pH-Conditions

[5] = DPPH radical-scavenging activity (Ex. 65); details: 10 mM, 100° C., 0-5.0 h, diluted 1:10
Method: 1 mg 1,1-Diphenyl-2-picrylhydrazyl radical (DPPH)/ml ethanol, dilution to assay concentration were prepared in ethanol (40 μg/mL); Calibration samples were prepared with Ascorbic acid in a concentration of 0-10 μg/mL; as a negative control sample, water was used.
Samples in aqueous solution were used as such or diluted with water.
A 0.1 ml sample (or calibration standard) was mixed with 3.9 ml solution of DPPH
([…]) and reacted while protected from light at room temperature for 30 min. Absorbance was determined at 517 nm against ethanol.
10 mM of amino acid and/or 10 mM sugar were dissolved in 10 ml 0.1 mM KH2PO4-buffer, pH=7.8.
The samples were kept at 100° C. in sealed glass vials (Pyrex 15 ml with screw caps) for 0 (before reaction), 2.5 or 5.0 hours. Thereafter the samples were transferred to an ice water bath and cooled down to room temperature. These samples were diluted 1:10 and used for the test assay for anti-oxidant potential.

[6] = Assay to test reducing power, active iron-III reduction (Ex. 64); details: 10 mM, 100° C., 0-5.0 h, diluted 1:10

COc1ccc(CCC(=O)c2c(O)cc(O[C@@H]3O[C@H](CO)[C@@H](O)[C@H](O)[C@H]3O[C@@H]3O[C@@H](C)[C@H](O)[C@@H](O)[C@H]3O)cc2O)cc1O [10 ppm NHDC]
Sensory evaluation [1]: Sweet, steep onset of sweetness, no lingering

OC[C@@H](O)[C@@H](O)CO [Erythritol]
Energy density [2]: 0.05

OCC(O)CO [Glycerol]
Energy density [2]: 1.075

CC1(C)[C@@H](O[C@H]2O[C@H](C(=O)O)[C@@H](O)[C@H](O)[C@H]2O[C@@H]2O[C@H](C(=O)O)[C@@H](O)[C@H](O)[C@H]2O)CC[C@]2(C)[C@H]3C(=O)C=C4[C@@H]5C[C@@](C)(C(=O)O)CC[C@]5(C)CC[C@@]4(C)[C@]3(C)CC[C@@H]12 [Glycyrrhizin]
times sweeter than sucrose [3]: 30 to 50 times

OC[C@@H](O)[C@@H](O[C@@H]1O[C@H](CO)[C@H](O)[C@H](O)[C@H]1O)[C@H](O)[C@@H](O)CO [Lactitol]
Energy density [2]: 0.5

O=C(O)[C@H](Cc1ccccc1)NCC(=O)[C@@H](O)[C@H](O)[C@H](O)CO [MRI (Phe-Glu)]
% formation from degraded Phe ([4]; reaction of Phe and Suc, pH = 5.5, n.d. = not detected): <0.10%
% formation from degraded Phe ([4]; reaction of Phe and Suc, pH = 7.0, n.d. = not detected): 0.54%
% formation from degraded Phe ([4]; reaction of Phe and Suc, pH = 8.5, n.d. = not detected): 0.84%

C=C1CC23CC[C@H]4[C@@](C)(CCC[C@@]4(C)C(=O)OC4O[C@H](C(=O)N[C@H](Cc5ccccc5)C(=O)O)[C@@H](O)[C@H](O)[C@H]4O)[C@@H]2CC(O[C@@H]2O[C@H](CO)[C@@H](O)C(O[C@@H]4O[C@H](CO)[C@@H](O)[C@H](O)[C@H]4O)[C@H]2O[C@@H]2O[C@H](CO)[C@@H](O)[C@H](O)[C@H]2O)C1C3 (stereo partly drawn) [MRI (Phe-Reb-A)]
% formation from degraded Phe ([4]; reaction of Phe and Reb-A, pH = 5.5, MRI (Phe-Reb-A): all possible isomers included): 10.4%
% formation from degraded Phe ([4]; reaction of Phe and Reb-A, pH = 7.0, MRI (Phe-Reb-A): all possible isomers included): 11.3%
% formation from degraded Phe ([4]; reaction of Phe and Reb-A, pH = 8.5, MRI (Phe-Reb-A): all possible isomers included): 14.7%

OC[C@@H](O)[C@@H](O[C@H]1O[C@H](CO)[C@@H](O)[C@H](O)[C@H]1O)[C@H](O)[C@@H](O)CO [Maltitol]
Energy density [2]: 0.525

OC[C@@H](O)[C@@H](O)[C@H](O)[C@H](O)CO [Mannitol]
Energy density [2]: 0.4
natural sweetness, times of that of sugar [3]: 0.55-0.65 times

COc1ccc(CCC(=O)c2c(O)cc(O[C@@H]3O[C@H](CO)[C@@H](O)[C@H](O)[C@H]3O[C@@H]3O[C@@H](C)[C@H](O)[C@@H](O)[C@H]3O)cc2O)cc1O [NHDC, Neohesperidin dihydrochalcone]
times sweeter than sugar ([3]; at threshold concentrations): 1500-1800 times
times sweeter than sugar ([3]; weight-for-weight): about 340 times

C=C1C[C@@]23CC[C@H]4[C@@](C)(CCC[C@@]4(C)C(=O)O[C@@H]4O[C@H](CO)[C@@H](O)[C@H](O)[C@H]4O)[C@@H]2CC[C@]1(O[C@@H]1O[C@H](CO)[C@@H](O)[C@H](O[C@@H]2O[C@H](CO)[C@@H](O)[C@H](O)[C@H]2O)[C@H]1O[C@@H]1O[C@H](CO)[C@@H](O)[C@H](O)[C@H]1O)C3 [Reb-A, Rebaudioside A]
anti-oxidant properties (radical scavenging) [5]: substantial anti-oxidant properties
anti-oxidant properties (active iron-III reduction) [6]: substantial anti-oxidant properties

OC[C@@H](O)[C@@H](O)[C@H](O)[C@@H](O)CO [Sorbitol]
Energy density [2]: 0.65

O=C(CO)[C@@H](O)[C@@H](O)[C@H](O)CO [Tagatose]
Energy density [2]: 0.38

C[C@H](CC[C@@H](O[C@@H]1O[C@H](CO)[C@@H](O)[C@H](O)[C@H]1O[C@@H]1O[C@H](CO)[C@@H](O)[C@H](O)[C@H]1O)C(C)(C)O)[C@H]1CC[C@@]2(C)[C@H]3CC=C4[C@@H](CC[C@H](O[C@@H]5O[C@H](CO[C@@H]6O[C@H](CO)[C@@H](O)[C@H](O)[C@H]6O)[C@@H](O)[C@H](O)[C@H]5O)C4(C)C)[C@]3(C)[C@H](O)C[C@]12C [mogroside IV]
natural sweetness, times of that of sugar [3]: 126 times

C[C@H](CC[C@@H](O[C@@H]1O[C@H](CO[C@@H]2O[C@H](CO)[C@@H](O)[C@H](O)[C@H]2O)[C@@H](O)[C@H](O)[C@H]1O[C@@H]1O[C@H](CO)[C@@H](O)[C@H](O)[C@H]1O)C(C)(C)O)[C@H]1CC[C@@]2(C)[C@@H]3CC=C4[C@@H](CC[C@H](O[C@@H]5O[C@H](CO[C@@H]6O[C@H](CO)[C@@H](O)[C@H](O)[C@H]6O)[C@@H](O)[C@H](O)[C@H]5O)C4(C)C)[C@]3(C)[C@H](O)C[C@]12C [mogroside V]
natural sweetness, times of that of sugar [3]: 256-344 times

O=S(=O)([O-])NC1CCCCC1.[Na+] [sodium cyclamate]
times sweeter than sucrose [3]: about 30 times

OC[C@H]1O[C@H](O[C@]2(CCl)O[C@H](CCl)[C@@H](O)[C@@H]2O)[C@H](O)[C@@H](O)[C@H]1Cl [sucralose]
times sweeter than sucrose [3]: about 600 times

Fructo-oligosaccharide
Sweetness by weight [3]: 0.3-0.5

Isomalt
Energy density [2]: 0.5

Isomalto-oligosaccharide
Sweetness by weight [3]: 0.5

rebaudioside B [Reb B]
% formation from degraded Reb-A ([4]; reaction of Phe and Reb-A, pH = 5.5): 23.1%
% formation from degraded Reb-A ([4]; reaction of Phe and Reb-A, pH = 7.0): 22.7%
% formation from degraded Reb-A ([4]; reaction of Phe and Reb-A, pH = 8.5): 19.1%
